Measured values from patent US20160370379A1, “BLOOD-BASED BIOMARKER FOR CANCER” (J-PHARMA CO., LTD., priority 2014, published 2016).

Columns and labels:
[1] = test system: gastric cancer cell line 44As3-11; assay: Amino acid concentration in culture medium of gastric cancer cell line with LAT1 inhibitor added; format: cell-based; details: 44As3-11 culture, inhibitor added at each concentration, medium collected 0-97 hrs (FIG. 2b)
Method: (§1) Each of the cancer cell lines 44As3-11 (gastric cancer cell line), T3M-4 (pancreas cancer cell line), and MIAPaCa-2 (pancreas cancer cell line) was used. By using a 6 well plate, culture was performed at 37° C. with 5×10^4 cells in 3 mL (10% FBS, L-Glu+PS in RPMI1640). The culture medium was collected at 0, 24, 48, 72, and 97 hrs and centrifuged at 1,000 rpm. The supernatant (1.0 mL) was then stored in a deep freezer (−80° C.) during a period until determination. Eight kinds of amino acids (including phenylalanine in addition to the aforementioned histidine, isoleucine, leucine, methionine, tryptophan, valine, and tyrosine) were measured by mass analysis. Each culture was performed in triplet and, by measuring the sample, the concentration of each amino acid was represented as mean value±standard deviation, and then compared among the groups. Furthermore, after adding an anticancer agent (O-(5-amino-2-phenylbenzoxazol-7-yl)methyl-3,5-dichloro-L-tyrosine) at each concentration to the culture medium, the property of inhibiting the decrease in amino acid concentration in the culture medium was observed.
(§2) 3) As for the statistical processing, Mann-Whitney U test was used for comparison between two groups, and those having a risk ratio of 0.05 or less were determined to be a significant difference.

[2] = test system: pancreas cancer cell line T3M-4; assay: Amino acid concentration in culture medium of pancreas cancer cell line with LAT1 inhibitor added; format: cell-based; details: T3M-4 culture, inhibitor added at each concentration, medium collected 0-97 hrs (FIG. 3b)
Method: as §1, §2

LAT1 = target: T1, LAT1 (Homo sapiens, UniProt Q01650); assay: Free amino acid concentration in blood serum of cancer patients at BSC stage administered inhibitor agent; format: in vivo
T1 construct: from tissue; host or cells: Solid tumours (pancreas, colon, gall bladder cancer with metastases) in living patients
T1 sequence (Q01650 whole entry): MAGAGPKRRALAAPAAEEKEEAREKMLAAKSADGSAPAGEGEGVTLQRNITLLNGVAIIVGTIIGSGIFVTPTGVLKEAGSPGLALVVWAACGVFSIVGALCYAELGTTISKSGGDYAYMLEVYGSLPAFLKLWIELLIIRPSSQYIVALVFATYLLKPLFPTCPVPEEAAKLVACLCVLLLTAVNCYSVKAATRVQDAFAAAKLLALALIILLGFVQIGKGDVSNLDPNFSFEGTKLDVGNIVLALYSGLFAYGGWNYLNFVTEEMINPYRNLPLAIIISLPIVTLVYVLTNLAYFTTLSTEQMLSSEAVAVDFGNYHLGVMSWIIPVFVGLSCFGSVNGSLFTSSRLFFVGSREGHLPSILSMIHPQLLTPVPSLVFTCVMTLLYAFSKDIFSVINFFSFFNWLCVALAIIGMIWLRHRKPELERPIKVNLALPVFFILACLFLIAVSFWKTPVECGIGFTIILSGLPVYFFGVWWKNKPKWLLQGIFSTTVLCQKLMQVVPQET
T1 sequence (P08195 102-630 partner): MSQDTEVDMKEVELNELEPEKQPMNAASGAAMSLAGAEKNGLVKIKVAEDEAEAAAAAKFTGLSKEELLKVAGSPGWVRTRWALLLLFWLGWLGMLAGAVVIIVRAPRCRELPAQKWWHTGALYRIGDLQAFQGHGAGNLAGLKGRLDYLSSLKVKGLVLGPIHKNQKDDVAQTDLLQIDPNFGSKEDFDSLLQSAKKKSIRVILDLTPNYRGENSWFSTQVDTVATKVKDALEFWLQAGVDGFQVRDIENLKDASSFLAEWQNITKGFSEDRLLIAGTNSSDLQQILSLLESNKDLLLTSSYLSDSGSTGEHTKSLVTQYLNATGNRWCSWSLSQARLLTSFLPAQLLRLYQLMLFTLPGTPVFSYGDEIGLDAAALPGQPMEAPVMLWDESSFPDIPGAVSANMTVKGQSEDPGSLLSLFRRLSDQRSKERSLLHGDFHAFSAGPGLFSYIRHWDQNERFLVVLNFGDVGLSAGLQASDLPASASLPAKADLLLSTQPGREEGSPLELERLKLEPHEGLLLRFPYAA
Method: Immediately after collecting blood from patients having gastric cancer [100 samples, average age (lowest value-highest value) 66.1 (31 to 89 years old), sex ratio 72:28], pancreas cancer [27, 70.3 (56 to 81) 13:14], or bile duct cancer [6, 70.5 (68 to 75) 5:1] and healthy control with no cancer [12, 50.8 (29 to 73) 11:1], blood serum was isolated and stored in a deep freezer (−80° C.) during a period until determination. The concentration of seven types of amino acids (histidine, isoleucine, leucine, methionine, tryptophan, valine, and tyrosine) was measured by mass analysis, and the measurement result was compared to the value obtained from blood of a healthy control. The concentration of each amino acid was represented as relative value of each case, with the mean value from the healthy control being 100%. The percentage was compared between the cancer patient and healthy control.
A predetermined clinical test (test and experiment) was registered with an administration bureau, and after obtaining an approval of the institutional review board (IRB) of a site management organization, patients were selected and blood serum for analysis was collected, stored, and analyzed. The patient as a subject carried solid tumors for which standard treatments for cancer are ineffective or are intolerable, and they were in a state generally referred to as a BSC stage. […]

## Nc1cc(COc2c(Cl)cc(C[C@H](N)C(=O)O)cc2Cl)c2oc(-c3ccccc3)nc2c1 [LAT1 inhibitor, O-(5-amino-2-phenylbenzoxazol-7-yl)methyl-3,5-dichloro-L-tyrosine]
[1]
  inhibition of the decrease in concentration of eight amino acids in the culture medium: property of inhibiting amino acid decrease in a pharmaceutical concentration dependent manner was shown
[2]
  inhibition of the decrease in concentration of eight amino acids in the culture medium: property of inhibiting amino acid decrease in a pharmaceutical concentration dependent manner was shown
LAT1; patients at BSC stage, 12 mg/m^2/day, 25.5 hours after start of single administration (FIGS. 4a, 4b)
  concentration of each amino acid in blood serum after single administration versus before administration: higher than the value before the administration
LAT1; subjects 102 and 104, healthy control mean = 100, Student's t test (FIG. 4c)
  relative blood concentration of eight amino acids before versus after single administration: significant difference between cases before and after the single administration
